The results in this text go back to PMC4450258 (Molecular neurobiology, 2014).

The target in this assay is T1, Sterol carrier protein 2 (SCP-2) (Homo sapiens, UniProt P22307).
T1 sequence (P22307 425-547): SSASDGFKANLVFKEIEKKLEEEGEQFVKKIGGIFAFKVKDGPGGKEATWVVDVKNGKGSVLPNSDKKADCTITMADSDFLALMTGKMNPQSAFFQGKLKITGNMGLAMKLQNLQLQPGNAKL
The format is biochemical.

The structures appear in SMILES notation.

Regarding `CCCCC/C=C\C/C=C\C/C=C\C/C=C\CCCC(=O)NCCO` [AEA, N-arachidonylethanolamine], the “inhibition of recombinant SCP-2-mediated [14C]cholesterol transfer from SUVs to” value is ~ 50 µM.
